Test results: article PMC7495481, “Sequence specificity analysis of the SETD2 protein lysine methyltransferase and discovery of a SETD2 super-substrate” (Communications Biology, 2020)

Legend:
Type in all cases: biochemical
SETD2 [1] = biological target: T1, SETD2 (Homo sapiens, UniProt Q9BYW2); assay: Methylation of purified ssK36 and H3K36 peptides, Tricine gel autoradiography; settings: 20 µM peptide, 6 µM SETD2, 0.76 µM AdoMet, 3 h, 25 °C; densitometry, three independent experiments, ± SD
T1 construct: SETD2 catalytic SET domain (amino acids 1347–1711, UniProt No: Q9BYW2); made in house; host or cells: E. coli
T1 sequence (Q9BYW2 1347-1711): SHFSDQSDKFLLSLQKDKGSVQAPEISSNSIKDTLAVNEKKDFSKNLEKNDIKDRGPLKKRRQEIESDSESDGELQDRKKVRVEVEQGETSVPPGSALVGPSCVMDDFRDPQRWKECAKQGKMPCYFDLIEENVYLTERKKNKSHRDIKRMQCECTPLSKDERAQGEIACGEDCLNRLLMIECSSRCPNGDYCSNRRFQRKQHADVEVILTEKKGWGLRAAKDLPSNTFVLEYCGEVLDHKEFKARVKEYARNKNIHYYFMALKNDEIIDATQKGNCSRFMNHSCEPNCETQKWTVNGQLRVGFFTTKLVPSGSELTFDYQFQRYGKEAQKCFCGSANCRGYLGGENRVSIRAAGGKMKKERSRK
From the text: To compare the methylation rates of the H3K36 and super-substrate peptides directly, purified ssK36 and H3K36 were methylated by SETD2, resolved on a Tricine gel and the methylation activity captured by autoradiography (Fig. 2b). To allow direct comparison of the methylation levels of both substrates, methylated ssK36 was loaded in different dilutions on the same gel.
The H3K36 (27–43) and the H3K36M (27–43) peptides were purchased from Intavis AG (Köln, Germany) and the ssK36 peptide (29–43) and the ssK36M peptide (29–43) were from Innovative Peptide Solutions (Berlin, Germany). If not indicated otherwise, peptide methylation reactions were performed using 20 µM peptide and 6 µM SETD2 in 20 µl methylation buffer supplemented with 0.76 µM radioactive labeled AdoMet (PerkinElmer) for 3 h at 25 °C. The reactions were halted by the addition of Tricine-SDS-PAGE loading buffer and incubation for 5 min at 95 °C. Afterward the samples were separated by Tricine-SDS-PAGE, which was followed by the incubation of the gel in amplify NAMP100V (GE Healthcare) for 45 min on a shaker and drying of the gel for 2 h at 55 °C in vacuum. The signals of the transferred radioactive labeled methyl groups were detected by autoradiography using a hyperfilm^TM high performance autoradiography film (GE Healthcare) at −80 °C in the dark. […]

SETD2 [2] = biological target: T1, SETD2; assay: Single turnover time course of ssK36 methylation; settings: 5 µM substrate, 6 µM enzyme; average ± SEM
Procedure: The H3K36 (27–43) and the H3K36M (27–43) peptides were purchased from Intavis AG (Köln, Germany) and the ssK36 peptide (29–43) and the ssK36M peptide (29–43) were from Innovative Peptide Solutions (Berlin, Germany). If not indicated otherwise, peptide methylation reactions were performed using 20 µM peptide and 6 µM SETD2 in 20 µl methylation buffer supplemented with 0.76 µM radioactive labeled AdoMet (PerkinElmer) for 3 h at 25 °C. The reactions were halted by the addition of Tricine-SDS-PAGE loading buffer and incubation for 5 min at 95 °C. Afterward the samples were separated by Tricine-SDS-PAGE, which was followed by the incubation of the gel in amplify NAMP100V (GE Healthcare) for 45 min on a shaker and drying of the gel for 2 h at 55 °C in vacuum. The signals of the transferred radioactive labeled methyl groups were detected by autoradiography using a hyperfilm^TM high performance autoradiography film (GE Healthcare) at −80 °C in the dark. The film was developed with an Optimax Typ TR machine after different exposure times.
Time courses of ssK36 methylation were analyzed by fitting to an exponential reaction progress curve (Eq. 1). Initial rates of single turnover reactions were determined using the first derivative of eq. 1 at t = 0. Signal=BL+F×1−exp^−kst×t […]

NSD2 = assay: Peptide methylation by NSD2; settings: peer review file
From the text: We, therefore, repeated the peptide array used for the development of the SETD2 super-substrate, which is shown in Figure 2A of our manuscript for NSD1 and NSD2. […]
that this mutation specifically increases the activity of these two enzymes. In contrast, with […]
combined with H39N/K. Importantly, in case of SETD2 H39N only has an effect in the context of the other mutations in ssK36. We conclude that the ssK36 substrate is specifically optimized for SETD2 as expected given the workflow of our experiments. The finding that H39N increases the activity of NSD1 and NSD2 is interesting and deserves additional work. It […]
conducted with NSD1 and NSD2. The SETD2 panel is taken from the manuscript for comparison. The table indicates the peptide compositions. Note, the gradual increase of methylation with increasing number of mutations in the case of SETD2. In case of NSD1 and NSD2, increased methylation is solely due to the H39N mutation , which has a weaker […]

In the case of “APRFGGVKRPNRYRP [ssK36, super-substrate peptide with four amino acid exchanges (A31R, T32F, K37R, H39N)]”, the “fold more efficient methylation of ssK36 than wild type H3K36 peptide” value (SETD2 [1]) is reported as 50 ± 4 fold, the “single turnover methylation rate constant kst” value (SETD2 [2]) is reported as 4.07 ± 0.39 h⁻¹ and the “methylation by NSD2” value (NSD2) is reported as “better substrate than H3K36”.
